A word on the IC50: it is the midpoint of a concentration-inhibition curve.

The target in the experiment is T1, MAGL (Homo sapiens, UniProt Q99685).
T1 sequence (Q99685 1-303): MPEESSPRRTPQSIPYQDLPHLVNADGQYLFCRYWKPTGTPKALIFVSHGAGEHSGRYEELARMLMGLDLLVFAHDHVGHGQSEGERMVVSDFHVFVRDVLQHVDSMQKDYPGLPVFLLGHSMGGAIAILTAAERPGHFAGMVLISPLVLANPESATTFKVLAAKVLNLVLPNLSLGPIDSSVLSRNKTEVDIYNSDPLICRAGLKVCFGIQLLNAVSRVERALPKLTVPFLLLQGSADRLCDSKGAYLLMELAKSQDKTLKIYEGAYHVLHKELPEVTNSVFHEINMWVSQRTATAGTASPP
Kind of experiment: 2-AG assay (MAGL inhibitory activity, hydrolysis of 2-arachidonoylglycerol to arachidonic acid followed by mass spectrometry). The format is biochemical. Conditions: 8 μM 2-arachidonoylglycerol, 15 min pre-incubation, 30 min incubation at RT, RapidFire MS readout. An outline of the steps: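 Human MAGL ([…] final) pre-incubated 15 min at RT with compound in 50 mM TRIS, 1 mM EDTA, 0.01% Tween-20, 2.5% DMSO; 8 μM 2-AG then added for 30 min at RT. Acetonitrile quench with d8-arachidonic acid; arachidonic acid measured by RapidFire SPE–MS/MS, activity from arachidonic acid/d8 ratio.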
`O=C(N1CC2(CC(Oc3ccc(F)c(F)c3)C2)C1)N1CC2(CC(n3cnc(C4CC4)n3)C2)C1` [Example 68, [6-(3-cyclopropyl-1,2,4-triazol-1-yl)-2-azaspiro[3.3]heptan-2-yl]-[6-(3,4-difluorophenoxy)-2-azaspiro[3.3]heptan-2-yl]methanone] yielded an IC50 of 0.9 nM.

With `O=C(N1CC(c2ccc(OC(F)(F)F)c(Cl)c2)C1)N1CC2(CC(n3cnc(C4CC4)c3)C2)C1` [Example 69], 2 nM corresponded to half-maximal inhibition (IC50).

Regarding `O=C(N1CC2(CC(Oc3cnc(C(F)(F)F)cn3)C2)C1)N1CC2(CC(n3cnc(C4CC4)n3)C2)C1` [Example 70, [6-(3-cyclopropyl-1,2,4-triazol-1-yl)-2-azaspiro[3.3]heptan-2-yl]-[6-[5-(trifluoromethyl)pyrazin-2-yl]oxy-2-azaspiro[3.3]heptan-2-yl]methanone], the half-inhibitory concentration (IC50) came out at 2.1 nM.

The compound `O=C(N1CC(OCc2ccc(OC(F)(F)F)cc2)C1)N1CC2(CC(n3cnc(C4CC4)n3)C2)C1` [Example 71, (6-(3-cyclopropyl-1H-1,2,4-triazol-1-yl)-2-azaspiro[3.3]heptan-2-yl)(3-((4-(trifluoromethoxy)ben-zyl)oxy)azetidin-1-yl)methanone] had an IC50 of 7.1 nM.

With `O=C(N1CC(OCc2ccc(C(F)(F)F)cc2)C1)N1CC2(CC(n3cnc(C4CC4)n3)C2)C1` [Example 72, (6-(3-cyclopropyl-1H-1,2,4-triazol-1-yl)-2-azaspiro[3.3]heptan-2-yl)(3-((4-(trifluoromethyl)benzyl)oxy)azetidin-1-yl)methanone], half-maximal inhibition (IC50) required 3.9 nM.

With `O=C(N1CC(OCc2cc(C(F)(F)F)ccc2F)C1)N1CC2(CC(n3cnc(C4CC4)n3)C2)C1` [Example 73, (6-(3-cyclopropyl-1H-1,2,4-triazol-1-yl)-2-azaspiro[3.3]heptan-2-yl)(3-((2-fluoro-5-(trifluoromethyl)benzyl)oxy)azetidin-1-yl)methanone], the IC50 was determined as 8.2 nM.

Regarding `O=C(N1CC(OCc2ccc(C(F)(F)F)c(F)c2)C1)N1CC2(CC(n3cnc(C4CC4)n3)C2)C1` [Example 74, (6-(3-cyclopropyl-1H-1,2,4-triazol-1-yl)-2-azaspiro[3.3]heptan-2-yl)(3-((3-fluoro-4-(trifluoromethyl)benzyl)oxy)azetidin-1-yl)methanone], the IC50 worked out at 160 nM.

With `O=C(N1CC(OCc2ccc(OC(F)(F)F)cc2F)C1)N1CC2(CC(n3cnc(C4CC4)n3)C2)C1` [Example 75, (6-(3-cyclopropyl-1H-1,2,4-triazol-1-yl)-2-azaspiro[3.3]heptan-2-yl)(3-((2-fluoro-4-(trifluoromethoxy)ben-zyl)oxy)azetidin-1-yl)methanone], the IC50 stood at 2.7 nM.

In turn, `O=C(N1CC(OCc2cc(F)cc(C(F)(F)F)c2)C1)N1CC2(CC(n3cnc(C4CC4)n3)C2)C1` [Example 76, (6-(3-cyclopropyl-1H-1,2,4-triazol-1-yl)-2-azaspiro[3.3]heptan-2-yl)(3-((3-fluoro-5-(trifluoromethyl)benzyl)oxy)azetidin-1-yl)methanone] returned a concentration for half-maximal inhibition (IC50) of 2.2 nM.

The compound `O=C(N1CC(OCc2ccc(F)cc2Cl)C1)N1CC2(CC(n3cnc(C4CC4)n3)C2)C1` [Example 77, (3-((2-chloro-4-fluorobenzyl)oxy)azetidin-1-yl)(6-(3-cyclopropyl-1H-1,2,4-triazol-1-yl)-2-azaspiro[3.3]heptan-2-yl)methanone] yielded an IC50 of 9.2 nM.

Consider `O=C(N1CC(OCc2ccc(F)cc2C(F)(F)F)C1)N1CC2(CC(n3cnc(C4CC4)n3)C2)C1` [Example 78, (6-(3-cyclopropyl-1H-1,2,4-triazol-1-yl)-2-azaspiro[3.3]heptan-2-yl)(3-((4-fluoro-2-(trifluoromethyl)benzyl)oxy)azetidin-1-yl)methanone], for which the IC50 turned out to be 12.2 nM.

Compound `O=C(N1CC2(CC(Oc3cc(F)ccc3F)C2)C1)N1CC2(CC(n3cnc(C4CC4)n3)C2)C1` [Example 79, (6-(3-cyclopropyl-1H-1,2,4-triazol-1-yl)-2-azaspiro[3.3]heptan-2-yl)(6-(2,5-difluorophenoxy)-2-azaspiro[3.3]heptan-2-yl)methanone] registered an IC50 of 1.3 nM.

In turn, `O=C(N1CC2(CC(Oc3ccc(C(F)(F)F)nc3)C2)C1)N1CC2(CC(n3cnc(C4CC4)n3)C2)C1` [Example 80, (6-(3-cyclopropyl-1H-1,2,4-triazol-1-yl)-2-azaspiro[3.3]heptan-2-yl)(6-((6-(trifluoromethyl)pyridin-3-yl)oxy)-2-azaspiro[3.3]heptan-2-yl)methanone] displayed an IC50 of 2.2 nM. Compared with the last compound, the IC50 is about 1.7-fold higher.

`O=C(N1CC2(CC(Oc3cncc(C(F)(F)F)c3)C2)C1)N1CC2(CC(n3cnc(C4CC4)n3)C2)C1` [Example 81, (6-(3-cyclopropyl-1H-1,2,4-triazol-1-yl)-2-azaspiro[3.3]heptan-2-yl)(6-((5-(trifluoromethyl)pyridin-3-yl)oxy)-2-azaspiro[3.3]heptan-2-yl)methanone]: half-maximal inhibition (IC50) was put at 1.8 nM.

As to `O=C(N1CC2(CC(Oc3cncc(Cl)c3)C2)C1)N1CC2(CC(n3cnc(C4CC4)n3)C2)C1` [Example 82, (6-((5-chloropyridin-3-yl)oxy)-2-azaspiro[3.3]heptan-2-yl)(6-(3-cyclopropyl-1H-1,2,4-triazol-1-yl)-2-azaspiro[3.3]heptan-2-yl)methanone], the half-inhibitory concentration (IC50) is 3.7 nM. This IC50 is about 2.1-fold higher than that of the compound before.

The compound `O=C(N1CC2(CC(Oc3ccc(Cl)nc3)C2)C1)N1CC2(CC(n3cnc(C4CC4)n3)C2)C1` [Example 83, (6-((6-chloropyridin-3-yl)oxy)-2-azaspiro[3.3]heptan-2-yl)(6-(3-cyclopropyl-1H-1,2,4-triazol-1-yl)-2-azaspiro[3.3]heptan-2-yl)methanone] came in with a 50% inhibitory concentration (IC50) of 5.2 nM.

As to `O=C(N1CC(c2ccc(OC(F)(F)F)cc2Cl)C1)N1CC2(CC(n3cnc(C4CC4)n3)C2)C1` [Example 84, [3-[2-chloro-4-(trifluoromethoxy)phenyl]azetidin-1-yl]−[6-(3-cyclopropyl-1,2,4-triazol-1-yl)-2-azaspiro[3.3]heptan-2-yl]methanone], the IC50 worked out at 0.6 nM.

Compound `O=C(N1CC(c2cc(F)c(OC(F)(F)F)c(F)c2)C1)N1CC2(CC(n3cnc(C4CC4)n3)C2)C1` [Example 85, [6-(3-cyclopropyl-1,2,4-triazol-1-yl)-2-azaspiro[3.3]heptan-2-yl]-[3-[3,5-difluoro-4-(trifluoromethoxy)phenyl]azetidin-1-yl]methanone] returned an IC50 of 0.4 nM.

Take `O=C(N1CC(c2ccc(OC(F)(F)F)cc2F)C1)N1CC2(CC(n3cnc(C4CC4)n3)C2)C1` [Example 86, [6-(3-cyclopropyl-1,2,4-triazol-1-yl)-2-azaspiro[3.3]heptan-2-yl]-[3-[2-fluoro-4-(trifluoromethoxy)phenyl]azetidin-1-yl]methanone]: inhibition was half-maximal at 0.4 nM (IC50).

`CC(C)(C)c1nc(C2CN(C(=O)N3CC4(CC(n5cnc(C6CC6)n5)C4)C3)C2)cs1` [Example 87, [3-(2-tert-butylthiazol-4-yl)azetidin-1-yl]-[6-(3-cyclopropyl-1,2,4-triazol-1-yl)-2-azaspiro[3.3]heptan-2-yl]methanone] gave an IC50 of 6.5 nM.

As for `CC(C)(C)Cc1nc(-c2ccc(C(=O)N3CC4(CC(n5cnc(C6CC6)n5)C4)C3)cc2)no1` [Example 88, [6-(3-cyclopropyl-1,2,4-triazol-1-yl)-2-azaspiro[3.3]heptan-2-yl]−[4-[5-(2,2-dimethylpropyl)-1,2,4-oxadiazol-3-yl]phenyl]methanone], the IC50 came to 1.1 nM.

These data come from patent publication US20240199587A1, “HETEROCYCLIC COMPOUNDS” (Hoffmann-La Roche Inc., priority 2021, published 2024).
